Values quoted from earlier work, collected in patent US10634592B2, “Process for microextraction and detection of an analyte” (KING FAHD UNIVERSITY OF PETROLEUM AND MINERALS, priority 2015, dated 2020).

Test system: cellular glutathione levels
Conditions: prior to cytotoxic effects

In the case of `CC(=O)C(Cl)Cl` [DCP, 1,1-dichloro-2-propanone], the “Effect on cellular glutathione levels” value is listed as “reduce cellular glutathione levels”.

Test system: not given
Conditions: octanol-water partition coefficient

Compared with `ClC(Cl)Br` [BDCM, bromodichloromethane], `ClC(Br)Br` [DBCM, dibromochloromethane] is higher in “log Kow” value: 1.88 for the first, 2.08 for the second.

First: CC(=O)C(Cl)Cl [DCP, 1,1-dichloro-2-propanone]
Second: CC(=O)C(Cl)(Cl)Cl [TCP, 1,1,1-trichloro-2-propanone]
The “log Kow” value of the first is lower: 0.20 for the first, 1.12 for the second.

Going from `BrC(Br)Br` [TBM, tribromomethane] to `ClC(Cl)Cl` [TCM, trichloromethane], the “log Kow” value falls from 2.38 to 1.97.
